Experimental data published in patent US4284621A, “Agents for protection against light” (Bayer Aktiengesellschaft, priority 1978, dated 1981).
Structures can show the parent of a compound that is named as a salt.

How the values were obtained:
[1] = UV absorption spectral data (wavelength λmax, molar extinction ε, specific extinction E1^1); format: physicochemical; design: Wavelength λmax: unit not given beside the values; settings: for Molar extinction ε: in M-1cm-1; for specific extinction (in words, compared with compounds of formula I): comparison with compounds of formula I
[2] = 14 day LD 50 (tolerance); format: in vivo
[3] = Solubilities at room temperature (20-25° C.) in groundnut oil and groundnut oil/liquid paraffin 1:9; format: physicochemical
[4] = Table 1, second value, in parentheses

Row | Compound | Specific extinction E1^1 ([1]; Table II) | Wavelength λmax (nm) ([1]; Table II) | Molar extinction ε ([1]; Table II) | Specific extinction E1^1 ([1]; Table 1) | Wavelength λmax ([1]; Table 1) | Molar extinction ε ([1]; Table 1) | further results
1 | 4-methoxy-benzylidene-cyanoacetic acid isodecyl ester [iso-Decyl] | 790 | 341 nm | 27,000 |  |  |  | 
2 | 4-methoxy-benzylidene-cyanoacetic acid isononyl ester [iso-Nonyl] | 860 | 341 nm | 28,400 |  |  |  | 14 day LD 50 [2]: 20.76 mL/kg
3 | COC(=O)C(C#N)=Cc1ccccc1OC [2-Methoxybenzylidenecyanoacetic acid methyl ester] |  |  |  | 470 | 354 | 10,300 | Molar extinction ε (value in parentheses) [1, 4]: 12,100; Specific extinction E1^1 (value in parentheses) [1, 4]: 560; Wavelength λmax (value in parentheses) [1, 4]: 297
4 | COC(=O)C(C#N)=Cc1ccc(OC)c(OC)c1 [3,4-Dimethoxybenzylidenecyanoacetic acid methyl ester] |  |  |  | 970 | 360 | 24,000 | 
5 | CCOC(=O)C(=Cc1ccc(OC)c(OC)c1)C(=O)OCC [3,4-Dimethoxybenzylidenemalonic acid diethyl ester] |  |  |  | 670 | 308 | 20,500 | 
6 | COC(=O)C(C#N)=Cc1cccc(N)c1 [3-Aminobenzylidenecyanic acid methyl ester] |  |  |  | 830 | 310 | 16,800 | 
7 | COC(=O)C(C#N)=Cc1cccc(O)c1 [3-Hydroxybenzylidenecyanoacetic acid methyl ester] |  |  |  | 900 | 303 | 18,200 | 
8 | CCOC(=O)C(=Cc1cccc(O)c1)C(=O)OCC [3-Hydroxybenzylidenemalonic acid diethyl ester] |  |  |  | 770 | 282 | 20,300 | 
9 | COC(=O)C(C#N)=Cc1cccc(OC)c1 [3-Methoxybenzylidenecyanoacetic acid methyl ester] |  |  |  | 710 | 299 | 15,300 | 
10 | COC(=O)C(C#N)=Cc1ccc(Cl)cc1 [4-Chlorobenzylidenecyanoacetic acid methyl ester] |  |  |  | 940 | 313 | 20,900 | 
11 | COC(=O)C(C#N)=Cc1ccc(N(C)C)cc1 [4-Dimethylaminobenzylidenecyanoacetic acid methyl ester] |  |  |  | 870 | 421 | 19,900 | 
12 | CN(C)c1ccc(C=C(C(N)=O)C(N)=O)cc1 [4-Dimethylaminobenzylidenemalonic acid diamide] |  |  |  | 870 | 369 | 20,400 | 
13 | COC(=O)C(=Cc1ccc(N(C)C)cc1)C(=O)OC [4-Dimethylaminobenzylidenemalonic acid dimethyl ester] |  |  |  | 1,200 | 375 | 31,400 | 
14 | CCOC(=O)C(=Cc1ccc(O)c(OC)c1)C(C)=O [4-Hydroxy-3-methoxybenzylideneacetoacetic acid ethyl ester] |  |  |  | 690 | 340 | 18,200 | 
15 | COC(=O)C(C#N)=Cc1ccc(O)c(OC)c1 [4-Hydroxy-3-methoxybenzylidenecyanoacetic acid methyl ester] |  |  |  | 960 | 366 | 22,400 | 
16 | CCOC(=O)C(=Cc1ccc(O)c(OC)c1)C(=O)OCC [4-Hydroxy-3-methoxybenzylidenemalonic acid diethyl ester] |  |  |  | 630 | 332 | 20,750 | 
17 | COC(=O)C(C#N)=Cc1ccc(O)cc1 [4-Hydroxybenzylidenecyanoacetic acid methyl ester] |  |  |  | 1,350 | 348 | 27,300 | 
18 | C=C(C)C(=O)Oc1ccc(C=C(C#N)C(=O)OC)cc1 [4-Methacryloxybenzylidenecyanoacetic acid methyl ester] |  |  |  | 1,230 | 312 | 23,000 | 
19 | CCOC(=O)C(=Cc1ccc(OC)cc1)C(C)=O [4-Methoxybenzylideneacetoacetic acid ethyl ester] |  |  |  | 770 | 316 | 19,000 | 

Row | Compound | Specific extinction E1^1 ([1]; Table II) | Wavelength λmax (nm) ([1]; Table II) | Molar extinction ε ([1]; Table II) | Specific extinction E1^1 ([1]; Table 1) | Wavelength λmax ([1]; Table 1) | Molar extinction ε ([1]; Table 1) | further results
20 | COc1ccc(C=C(C#N)C(N)=O)cc1 [4-Methoxybenzylidenecyanoacetic acid amide] |  |  |  | 1,200 | 332 | 24,300 | 
21 | COc1ccc(C=C(C#N)C(=O)N(CC(C)C)CC(C)C)cc1 [4-Methoxybenzylidenecyanoacetic acid diisobutylamide] |  |  |  | 510 | 325 | 15,900 | 
22 | COC(=O)C(C#N)=Cc1ccc(OC)cc1 [4-Methoxybenzylidenecyanoacetic acid methyl ester] |  |  |  | 1,350 | 340 | 29,300 | 
23 | COc1ccc(C=C(C(=O)OCC(C)C)C(=O)OCC(C)C)cc1 [4-Methoxybenzylidenemalonic acid diisobutyl ester] |  |  |  | 740 | 312 | 24,800 | 
24 | COC(=O)C(C#N)=Cc1ccc(C)cc1 [4-Methylbenzylidenecyanoacetic acid methyl ester] |  |  |  | 1,230 | 317 | 25,000 | 
25 | COc1ccc(C(=O)c2cc(S(=O)(=O)O)c(OC)cc2O)c(O)c1 [(1), sodium salt of 2,2'-dihydroxy-4,4'-dimethoxybenzophenone-5-sulphonic acid] | 160 | 330 nm | 5,920 |  |  |  | specific extinction (in words, compared with compounds of formula I) ([1]; Table II): significantly lower specific extinction
26 | O=C(c1ccc(O)cc1O)c1ccc(O)cc1O [(2), 2,2',4,4'-tetrahydroxybenzophenone] | 645 | 351 nm | 15,900 |  |  |  | specific extinction (in words, compared with compounds of formula I) ([1]; Table II): significantly lower specific extinction; Solubility at room temperature in groundnut oil (%) [3]: 0.8%
27 | COc1ccc(C(=O)CC(=O)c2ccc(OC)cc2)cc1 [(3), dianisoylmethane] |  |  |  |  |  |  | Solubility at room temperature in groundnut oil (%) [3]: 1%
28 | COC(=O)C(C#N)=Cc1ccco1 [Furfurylidenecyanoacetic acid methyl ester] |  |  |  | 1,530 | 337 | 27,000 | 
29 | CCCCOC(=O)C(C#N)=Cc1ccc(OC)cc1 [n-Butyl] | 1,090 | 342 nm | 28,300 |  |  |  | Solubility at room temperature in groundnut oil (%) [3]: 17%; Solubility at room temperature in groundnut oil/liquid paraffin 1:9 (%) [3]: 3%
30 | CCCCCCCCCCOC(=O)C(C#N)=Cc1ccc(OC)cc1 [n-Decyl, 4-methoxy-benzylidene-cyanoacetic acid n-decyl ester] | 810 | 341 nm | 27,700 |  |  |  | 
31 | CCCCCCCCCCCCOC(=O)C(C#N)=Cc1ccc(OC)cc1 [n-Dodecyl] | 770 | 342 nm | 28,450 |  |  |  | Solubility at room temperature in groundnut oil (%) [3]: 14%
32 | CCCCCCCOC(=O)C(C#N)=Cc1ccc(OC)cc1 [n-Heptyl] | 940 | 341 nm | 28,300 |  |  |  | Solubility at room temperature in groundnut oil (%) [3]: 33%; Solubility at room temperature in groundnut oil/liquid paraffin 1:9 (%) [3]: 7%
33 | CCCCCCOC(=O)C(C#N)=Cc1ccc(OC)cc1 [n-Hexyl, 4-methoxy-benzylidene-cyanoacetic acid n-hexyl ester] | 990 | 342 nm | 28,500 |  |  |  | Solubility at room temperature in groundnut oil/liquid paraffin 1:9 (%) [3]: 90%; 14 day LD 50 [2]: 5.71 mL/kg
34 | CCCCCCCCCOC(=O)C(C#N)=Cc1ccc(OC)cc1 [n-Nonyl] | 910 | 341 nm | 30,000 |  |  |  | Solubility at room temperature in groundnut oil (%) [3]: 55%; Solubility at room temperature in groundnut oil/liquid paraffin 1:9 (%) [3]: 10%
35 | CCCCCCCCOC(=O)C(C#N)=Cc1ccc(OC)cc1 [n-Octyl, 4-methoxy-benzylidene-cyanoacetic acid n-octyl ester] | 970 | 341 nm | 30,500 |  |  |  | Solubility at room temperature in groundnut oil/liquid paraffin 1:9 (%) [3]: 90%
36 | CCCCCOC(=O)C(C#N)=Cc1ccc(OC)cc1 [n-Pentyl] | 1,050 | 341 nm | 28,600 |  |  |  | Solubility at room temperature in groundnut oil (%) [3]: 6-7%; Solubility at room temperature in groundnut oil/liquid paraffin 1:9 (%) [3]: 1.4%
37 | COC(=O)C(C#N)=C(c1ccccc1)c1ccccc1 [α-Cyano-β,β-diphenyl-acrylic acid methyl] |  |  |  | 520 |  | 14,000 | 
38 | COC(=O)C(C#N)=C(C)c1ccc(OC)cc1 [α-Cyano-β-methyl-β-(4-methoxyphenyl)-acrylic acid methyl ester] |  |  |  | 460 | 318 | 10,900 | 
